Series [1] has as its system PXR and its CYP2C9 and CYP3A4 target genes.
For series [2], the system named is hESC-derived hepatocytes. It is filed as cell-based, human. The following applies: LA replaced with 9CLA, with 100 μM OA.
The target in another series is PXR (Homo sapiens, UniProt O75469). It is filed as cell-based. As to the method: (§1) Cultured cells were fixed using 4% paraformaldehyde for 15 minutes at room temperature. […] Following washes, cells were incubated with secondary antibodies for 1 hour at room temperature in blocking buffer (Table 10, hereinbelow). Hoechst staining was performed using bisBenzimide H33342 for 2 minutes. Imaging was performed on a Zeiss LSM 700 confocal microscope.
Sequence of PXR (O75469 whole entry): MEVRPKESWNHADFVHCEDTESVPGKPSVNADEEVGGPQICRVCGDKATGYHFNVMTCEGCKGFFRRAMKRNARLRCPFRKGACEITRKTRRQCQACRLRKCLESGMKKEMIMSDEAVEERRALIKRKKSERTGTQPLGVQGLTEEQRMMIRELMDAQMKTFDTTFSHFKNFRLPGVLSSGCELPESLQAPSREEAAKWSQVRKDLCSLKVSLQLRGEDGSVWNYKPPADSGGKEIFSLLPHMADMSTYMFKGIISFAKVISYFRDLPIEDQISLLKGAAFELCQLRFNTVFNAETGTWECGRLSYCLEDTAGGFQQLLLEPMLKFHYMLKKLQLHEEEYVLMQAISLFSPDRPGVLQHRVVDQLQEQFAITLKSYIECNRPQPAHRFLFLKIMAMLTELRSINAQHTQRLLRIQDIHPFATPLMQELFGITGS

Series [3] deals with hESC-derived hepatocytes. The series can be described thus: Albumin, AFP and ApoB100 production (ELISA). The format is cell-based, human. The conditions noted are these: cells treated with OA and LA; 24-hours treatment with GW9662. As to the method: Culture media samples were collected daily and stored at −80° C. Albumin and AFP concentrations were analyzed using Human Albumin ELISA quantitation set (Bethyl laboratories, Montgomery, Tex.) and Human AFP (alpha-fetoprotein) Quantikine ELISA kit (R&D Systems, Minneapolis, Minn.), according to manufacturer directions. […] Data was normalized to total cellular protein utilizing the Bradford assay.

Series [4] has as its system hESC-derived hepatocytes. The series can be described thus: HSP60 immunofluorescence and CellProfiler analysis of mitochondrial network. The format is cell-based, human. On the procedure:
as §1

Series [5] relates to hESC-derived hepatocytes. The series can be described thus: qRT-PCR of nuclear receptors, lipid metabolism, albumin and mitochondrial genes after fatty acid treatment. The format is cell-based, human. A general note: Quantitative PCR measures a nucleic acid by following its amplification.
The test system of series [6] is hESC-derived hepatocytes. The format is cell-based, human. The following applies: 50 μM LCA.
In series [7] the test system is CYP450 (CYP1A, CYP3A4, CYP2C9). The following applies: human, 72 h. As to the method:
CYP1A activity was evaluated utilizing EROD (ethoxyresorufin-o-deethylase) as previously described (Behnia, 2000). […] Briefly, cultures were incubated with 100 μM BFC (7-benzyloxy-4-trifluoromethylcoumarinat), or 10 μM MFC (7-methoxy-4-trifluoromethylcoumarin) for 1 hour at 37° C. Supernatant samples were collected every 30 minutes for 2.5 hours. The reactions were stopped by collection of the incubation medium. Metabolite conjugates formed via phase II activity were hydrolyzed by incubation of medium samples with β-glucuronidase/arylsulfatase for 2 hours at 37° C. Samples were diluted 1:1 in quenching solution and HFC (7-hydroxy-4-trifluoromethylcoumarin), the respective fluorescent metabolite formation, was measured at the appropriate wavelengths (410/510) and normalized to total protein determined by Bradford.
CYP450 activity was quantified as described above at the end of the stimulation period.

Series [8] has as its system hESC-derived hepatocytes. The conditions noted are these: human, 24 h. As to the method: Quantification of intracellular lipids was performed using LipidTOX™ Green Neutral Lipid Stain (Molecular Probes). […] Staining intensity was normalized to negative control. […] Incubation media was removed and cultures washed with ice-cold PBS containing calcium and magnesium. The number of green CDF particles was normalized to the number of Hoechst nuclei as an indicator of functional bile canaliculi. Particle and nuclei counting was performed utilizing the ImageJ particle analyzer.

The test system of series [9] is LCA- and MK4-treated hESC-derived hepatocytes. As to the method: Cultured cells were exposed to different concentrations of compounds dissolved in culture medium for 24 hours at 37° C. Cell viability was determined utilizing LIVE/DEAD Cytotoxicity kit (Molecular Probes, Eugene, Oreg.) according to manufacturer instructions. In brief, cultures were incubated with 2 μM Calcein AM and 3 μM ethidium homodimer-1 for 25 minutes. Hydrolysis by functional intracellular esterases causes live cells to fluoresce green, while the punctured membranes of dead cells permit ethidium homodimer-1 to bind DNA and fluoresce red. Cellular viability was calculated by live to dead ratio and normalized to negative control. TC50 values were quantified using GraphPad Prism software (La Jolla, Calif.).
Differentiation was adapted to 96-well plates (General Materials and Experimental Methods above). Cells were exposed to increasing concentrations of compounds on day 16, and viability was quantified using fluorescence Live/Dead staining after 24 hours of exposure (FIG. 4D).

In series [10] the test system is hESC-derived hepatocytes. On the procedure:
Toxicological endpoints were evaluated for nine hepatotoxic compounds at TC20 values identified above. Quantitation of apoptotic cells was performed utilizing DeadEnd™ fluorometric TUNEL System (Promega, Madison, Wis.) according to manufacturer instructions. […] Cell were permeabilized and exposed to fluorescein-12-dUTP and terminal deoxynucleotidyl transferase (TdT), dying apoptotic nuclei green. The reaction was subsequently stopped and the cells counterstained for DAPI. A percent apoptotic nucleus was calculated by dividing the number of TUNEL to DAPI positive nuclei.

Several values for one entry are separate records, joined by “and”; a condition that tells them apart may be missing. Equal values may be shown once. Entries after “also recorded” stand apart in the source; their conditions may differ. Read-outs that look alike come from different tables or passages of the source.

For `CCCCCC/C=C/C=C\CCCCCCCC(=O)O` [9CLA, cis-9,trans-11-octadecadienoic acid], the “CYP3A4 and CYP2C9 gene expression” value in series [1] (hepatocytes) was “increased significantly”. In addition, in the series on hESC-derived hepatocytes [2], the “mitochondrial respiration relative to primary human hepatocytes” value was 60%. The “increase in PXR nuclear localization compared to untreated cells” value on PXR (100 μM each, 9CLA replaces LA, with OA) is reported as 50%. Besides, the “additional increase in PXR nuclear localization when LA is replaced with 9CLA” value at PXR (with OA) is 30% and 40%.

In the case of `C[S+](C)[O-]` [DMSO, Dimethyl sulfoxide], in series [1] (human, hepatocytes, 2 %), the “CYP450 gene expression” value is reported as “increased expression of all CYP450 enzymes measured”; the “increase in expression of PXR and most CYP450 enzymes checked” value is given as 2-6 fold.

For the compound `O=C(Nc1ccccc1)c1cc([N+](=O)[O-])ccc1Cl` [GW9662], the “CYP3A4 and CYP2C9 gene expression” value in series [1] (fatty acid treated cells) was “down-regulated”. For the same compound, in the series with hESC-derived hepatocytes [3], the “effect on albumin secretion / albumin gene expression and production” value is on record as “significant decrease; also recorded: blocked”. For the same compound, in the series with hESC-derived hepatocytes [4], the “effect on fatty acid induced elongation and narrowing of mitochondria” value is on record as “reversed the effect”. Moreover, in the series on hESC-derived hepatocytes [5] (24-hours treatment, OA and LA treated cells), the “effect on expression of genes involved in lipid metabolism” value is listed as “inhibited”. Besides, the “PGC1, MFN2 and FIS1 gene expression” value in the series with hESC-derived hepatocytes [5] (fatty acid treated cells) is recorded as “decrease”. The “effect on PXR nuclear localization” value on PXR (fatty acid treated cells) is “down-regulated; also recorded: significant decrease”.

For `C[C@H](CCC(=O)O)[C@H]1CC[C@H]2[C@@H]3CC[C@@H]4C[C@H](O)CC[C@]4(C)[C@H]3CC[C@]12C` [LCA, lithocholic acid], the “toxicity to differentiating cells” value in the series with hESC-derived hepatocytes [6] is “mild toxicity”.

On to `CC(C)=CCC/C(C)=C/CC/C(C)=C/CC/C(C)=C/CC1=C(C)C(=O)c2ccccc2C1=O` [MK4, menaquinone-4], for which the PXR expression induction in series [1] (10 μM, final maturation step) is 1.9 fold.

On to `COc1ccc2[nH]c([S+]([O-])Cc3ncc(C)c(OC)c3C)nc2c1` (centres unmarked) [Omeprazole, omeprazole], for which, in [7], the “induction of BFC metabolism” value came out at 3 fold. In [7] (50 μM), the “induction of EROD metabolism” value is recorded as 9 fold. Further, the “induction of CYP450 activity” value in series [7] (hepatocytes, 50 μM) is on record as “preferentially induced CYP1A”.

As to `CC(=O)Oc1ccccc1C(=O)O` [acetylsalicylic acid], the “increase in intracellular lipids compared to control” value (from here on “increase in intracellular lipids”) in the series with hESC-derived hepatocytes [8] was 25-26 fold. In series [9] (human, 24 h), the “TC20 concentration used for endpoint assays” value (“TC20 concentration used” for short) was determined as 2000 µM.

As for `CN(C)CCCN1c2ccccc2Sc2ccc(Cl)cc21` [chlorpromazine], in the series with hESC-derived hepatocytes [8], the “decrease in number of CDF-positive bile canaliculi compared to control” value is 13-30 fold and the “loss of epithelial polarization” value is reported as 14 fold. The “TC20 concentration used” value in [9] (human, 24 h) came to 45 µM.

As to `O=C(O)Cc1ccccc1Nc1c(Cl)cccc1Cl` [diclofenac], the “DNA fragmentation compared to control” value in the series on hESC-derived hepatocytes [10] was “significant increase”. The “increase in percent of apoptotic nuclei compared to control” value in the series on hESC-derived hepatocytes [10] (human, 24 h) was 3-4 fold. For the same compound, the “TC20 concentration used” value in [9] (human) turned out to be 300 µM.

As to `OC[C@@H](O)[C@@H](O)[C@H](O)[C@H](O)CO` [mannitol], in series [9], the “toxicity” value was “no adverse effects”.

Turning to `COc1ccc2[nH]cc(CCNC(C)=O)c2c1` [melatonin], in the series on hESC-derived hepatocytes [8], the “increase in intracellular lipids” value was found to be 30 fold and the “intracellular lipid accumulation” value is “significant (P<0.006) increase”. For the same compound, the “effect on cell viability” value in the series with hESC-derived hepatocytes [10] is on record as “not affecting”. In addition, in series [9], the “toxicity” value is reported as “clear toxicity”. In series [9] (human, 24 h), this compound displayed a TC50 of 700 ± 200 µM.

On to `CC1CCC(C(C)C)C(O)C1` (centres unmarked) [menthol], for which the “toxicity” value in series [9] is reported as “no adverse effects”.

For `Cc1c(C)c2c(c(C)c1O)CCC(C)(COc1ccc(CC3SC(=O)NC3=O)cc1)O2` (centres unmarked) [troglitazone], in the series on hESC-derived hepatocytes [8], the “decrease in number of CDF-positive bile canaliculi compared to control” value is 13-30 fold and the “loss of epithelial polarization” value was 14 fold. In addition, the “TC20 concentration used” value in [9] (human, 24 h) stood at 80 µM.

As for `CCCC(CCC)C(=O)O` [valproic acid], the “increase in intracellular lipids” value in the series with hESC-derived hepatocytes [8] was 25-26 fold.

Regarding aflatoxin B1, the “DNA fragmentation compared to control” value in the series with hESC-derived hepatocytes [10] is listed as “significant increase”. The “TC20 concentration used” value in series [9] came to 2 µM.
